In patent US8192962B2, “Processes for detecting toxic substances” (Daikin Industries, Ltd., priority 2001, dated 2012):

Tested on: Unknown protein yeast genes
Assay: DNA chip mRNA expression in yeast, unknown protein yeast genes (Table 1)
Assay type: cell-based, Saccharomyces cerevisiae S288C
Method in brief: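 Untreated cultures served as reference for log-phase S288C yeast given a growth-inhibiting, non-lethal toxicant dose for 2 h at 25° C. in YPD. Gene expression was measured on a whole-genome DNA chip from Cy3/Cy5-labeled cDNA.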

## [Cl][Pb][Cl] [(4), PbCl2]
Yeast gene YKL195W, incubated two hours with chemical substance
  The level of expressed mRNA in the presence of chemical substance/The level of expressed mRNA in the absence of chemical substance: 1.1
Yeast gene YKR091W, incubated two hours with chemical substance
  The level of expressed mRNA in the presence of chemical substance/The level of expressed mRNA in the absence of chemical substance: 3.5
Yeast gene YLR054C, incubated two hours with chemical substance
  The level of expressed mRNA in the presence of chemical substance/The level of expressed mRNA in the absence of chemical substance: 2.4
Yeast gene YLR149C, incubated two hours with chemical substance
  The level of expressed mRNA in the presence of chemical substance/The level of expressed mRNA in the absence of chemical substance: 2.3
Yeast gene YLR152C, incubated two hours with chemical substance
  The level of expressed mRNA in the presence of chemical substance/The level of expressed mRNA in the absence of chemical substance: 0.9
Yeast gene YLR194C, incubated two hours with chemical substance
  The level of expressed mRNA in the presence of chemical substance/The level of expressed mRNA in the absence of chemical substance: 3.6
Yeast gene YLR324W, incubated two hours with chemical substance
  The level of expressed mRNA in the presence of chemical substance/The level of expressed mRNA in the absence of chemical substance: 1.0
Yeast gene YLR350W, incubated two hours with chemical substance
  The level of expressed mRNA in the presence of chemical substance/The level of expressed mRNA in the absence of chemical substance: 2.3
Yeast gene YLR387C, incubated two hours with chemical substance
  The level of expressed mRNA in the presence of chemical substance/The level of expressed mRNA in the absence of chemical substance: 0.6
Yeast gene YLR460C
  The level of expressed mRNA in the presence of chemical substance/The level of expressed mRNA in the absence of chemical substance: 1.1
Yeast gene YML117W, incubated two hours with chemical substance
  The level of expressed mRNA in the presence of chemical substance/The level of expressed mRNA in the absence of chemical substance: 1.6
Yeast gene YMR009W, incubated two hours with chemical substance
  The level of expressed mRNA in the presence of chemical substance/The level of expressed mRNA in the absence of chemical substance: 1.9
Yeast gene YMR067C, incubated two hours with chemical substance
  The level of expressed mRNA in the presence of chemical substance/The level of expressed mRNA in the absence of chemical substance: 0.4
Yeast gene YMR090W
  The level of expressed mRNA in the presence of chemical substance/The level of expressed mRNA in the absence of chemical substance: 3.5
Yeast gene YMR095C, incubated two hours with chemical substance
  The level of expressed mRNA in the presence of chemical substance/The level of expressed mRNA in the absence of chemical substance: 1.0
Yeast gene YMR097C, incubated two hours with chemical substance
  The level of expressed mRNA in the presence of chemical substance/The level of expressed mRNA in the absence of chemical substance: 1.6
Yeast gene YMR102C, incubated two hours with chemical substance
  The level of expressed mRNA in the presence of chemical substance/The level of expressed mRNA in the absence of chemical substance: 0.8
Yeast gene YMR107W, incubated two hours with chemical substance
  The level of expressed mRNA in the presence of chemical substance/The level of expressed mRNA in the absence of chemical substance: 18.4
Yeast gene YMR180C, incubated two hours with chemical substance
  The level of expressed mRNA in the presence of chemical substance/The level of expressed mRNA in the absence of chemical substance: 1.3
Yeast gene YMR184W, incubated two hours with chemical substance
  The level of expressed mRNA in the presence of chemical substance/The level of expressed mRNA in the absence of chemical substance: 1.1
Yeast gene YMR191W, incubated two hours with chemical substance
  The level of expressed mRNA in the presence of chemical substance/The level of expressed mRNA in the absence of chemical substance: 1.6
Yeast gene YMR295C, incubated two hours with chemical substance
  The level of expressed mRNA in the presence of chemical substance/The level of expressed mRNA in the absence of chemical substance: 1.6
Yeast gene YMR316W, incubated two hours with chemical substance
  The level of expressed mRNA in the presence of chemical substance/The level of expressed mRNA in the absence of chemical substance: 1.9
Yeast gene YNL044W, incubated two hours with chemical substance
  The level of expressed mRNA in the presence of chemical substance/The level of expressed mRNA in the absence of chemical substance: 1.3
Yeast gene YNL074C, incubated two hours with chemical substance
  The level of expressed mRNA in the presence of chemical substance/The level of expressed mRNA in the absence of chemical substance: 1.2
Yeast gene YNL092W, incubated two hours with chemical substance
  The level of expressed mRNA in the presence of chemical substance/The level of expressed mRNA in the absence of chemical substance: 1.8
Yeast gene YNL115C, incubated two hours with chemical substance
  The level of expressed mRNA in the presence of chemical substance/The level of expressed mRNA in the absence of chemical substance: 1.4
Yeast gene YNL156C, incubated two hours with chemical substance
  The level of expressed mRNA in the presence of chemical substance/The level of expressed mRNA in the absence of chemical substance: 1.3
Yeast gene YNL234W, incubated two hours with chemical substance
  The level of expressed mRNA in the presence of chemical substance/The level of expressed mRNA in the absence of chemical substance: 1.8
Yeast gene YNL281W, incubated two hours with chemical substance
  The level of expressed mRNA in the presence of chemical substance/The level of expressed mRNA in the absence of chemical substance: 1.4
Yeast gene YNL305C, incubated two hours with chemical substance
  The level of expressed mRNA in the presence of chemical substance/The level of expressed mRNA in the absence of chemical substance: 1.4
Yeast gene YNR068C, incubated two hours with chemical substance
  The level of expressed mRNA in the presence of chemical substance/The level of expressed mRNA in the absence of chemical substance: 2.6
Yeast gene YOL032W, incubated two hours with chemical substance
  The level of expressed mRNA in the presence of chemical substance/The level of expressed mRNA in the absence of chemical substance: 1.3
Yeast gene YOL036W, incubated two hours with chemical substance
  The level of expressed mRNA in the presence of chemical substance/The level of expressed mRNA in the absence of chemical substance: 0.8
Yeast gene YOL047C, incubated two hours with chemical substance
  The level of expressed mRNA in the presence of chemical substance/The level of expressed mRNA in the absence of chemical substance: 2.5
Yeast gene YOL071W, incubated two hours with chemical substance
  The level of expressed mRNA in the presence of chemical substance/The level of expressed mRNA in the absence of chemical substance: 2.0
Yeast gene YOL082W, incubated two hours with chemical substance
  The level of expressed mRNA in the presence of chemical substance/The level of expressed mRNA in the absence of chemical substance: 2.1
Yeast gene YOL083W, incubated two hours with chemical substance
  The level of expressed mRNA in the presence of chemical substance/The level of expressed mRNA in the absence of chemical substance: 2.8
Yeast gene YOL117W, incubated two hours with chemical substance
  The level of expressed mRNA in the presence of chemical substance/The level of expressed mRNA in the absence of chemical substance: 1.4
Yeast gene YOL131W, incubated two hours with chemical substance
  The level of expressed mRNA in the presence of chemical substance/The level of expressed mRNA in the absence of chemical substance: 1.0
Yeast gene YOL150C
  The level of expressed mRNA in the presence of chemical substance/The level of expressed mRNA in the absence of chemical substance: 0.9
Yeast gene YOL162W, incubated two hours with chemical substance
  The level of expressed mRNA in the presence of chemical substance/The level of expressed mRNA in the absence of chemical substance: 1.4
Yeast gene YOR019W, incubated two hours with chemical substance
  The level of expressed mRNA in the presence of chemical substance/The level of expressed mRNA in the absence of chemical substance: 4.7
Yeast gene YOR197W, incubated two hours with chemical substance
  The level of expressed mRNA in the presence of chemical substance/The level of expressed mRNA in the absence of chemical substance: 1.4
Yeast gene YPL087W, incubated two hours with chemical substance
  The level of expressed mRNA in the presence of chemical substance/The level of expressed mRNA in the absence of chemical substance: 7.3
Yeast gene YPL196W, incubated two hours with chemical substance
  The level of expressed mRNA in the presence of chemical substance/The level of expressed mRNA in the absence of chemical substance: 1.7
Yeast gene YPL206C, incubated two hours with chemical substance
  The level of expressed mRNA in the presence of chemical substance/The level of expressed mRNA in the absence of chemical substance: 1.9
Yeast gene YPL222W, incubated two hours with chemical substance
  The level of expressed mRNA in the presence of chemical substance/The level of expressed mRNA in the absence of chemical substance: 1.3
Yeast gene YPR023C, incubated two hours with chemical substance
  The level of expressed mRNA in the presence of chemical substance/The level of expressed mRNA in the absence of chemical substance: 0.8
Yeast gene YPR151C, incubated two hours with chemical substance
  The level of expressed mRNA in the presence of chemical substance/The level of expressed mRNA in the absence of chemical substance: 4.1
